Test results as given in PMC10718076, “1,2-Disubstituted bicyclo[2.1.1]hexanes as saturated bioisosteres of ortho-substituted benzene” (Chemical Science, 2023).
≈ marks a conversion by molar mass, not a printed value. Where two headings read alike, the source gives them in different places.

Assays:
[1] = Kinetic solubility in phosphate-buffered saline, pH 7.4; format: physicochemical; settings: 25 °C, kinetic from dmso stock, phosphate-buffered saline; for solubility at 2 h: pH 7.4, aqueous buffer, Table S2, 2st batch
Summary of the method: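 Compound diluted from 20 mM DMSO stock to nominal 400 μM in PBS pH 7.4, shaken 2 h at 25 °C, then filtered. Filtrate concentration determined by UV-Vis (230-550 nm) against calibration curves in 50% acetonitrile/PBS; effective range approximately 2-400 μM.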

[2] = test system: Aspergillus niger (strain VURV-F 822); assay: Antifungal disk diffusion method; format: cell-based; settings: read-out: Diameter of inhibition zone
Protocol: Antifungal activity of the synthetic compounds using disk diffusion methods The compounds were tested for plant pathogens Aspergillus niger (strain VURV-F 822), which was received from Culture collection of microorganisms of Crop Research Institute (Prague, Czech […]
The synthetic compounds' antifungal activity was evaluated using a disk diffusion assay for testing filamentous fungi (CLSI M51-A) and broth microdilution antifungal susceptibility testing (EUCAST E.DEF 7.3.1; CLSI M38-A2)
[CLSI M51-A. Method for Antifungal Disk Diffusion Susceptibility Testing of Nondermatophyte Filamentous Fungi; Approved Guideline.CLSI document M51-A. Wayne, PA:
Clinical and Laboratory Standards Institute; 2010. This method is standardized for Altenaria, Aspergillus, Bipolaris, Fusarium, order Mucorales, etc.]
[CLSI M38-A2. 2008. Reference method for broth dilution antifungal susceptibility testing of filamentous fungi, 2nd ed Approved standard M38 -A2 Clinical and Laboratory Standards Institute, […]
Antifungal disk diffusion method
The solutions of fungicides and their analogues were diluted in dimethyl sulfoxide (DMSO) to […]
mg/mL for each test component. Sterile paper disks (ASPECT, Ukraine) were soaked with 10 μl of a solution of the appropriate fungicide from the highest concentration to the lowest.
The fungal strains were cultured on Petri dishes with Saburo dextrose agar (Condalab, Spain) and incubated at 25 °C for 5 days. Sterile Dulbecco's phosphate -buffered saline (DPBS) with 0,1 % Tween 20 was used to cover colonies of fungus for obtained conidia l suspension. Suspension of conidia was adjusted to inoculums 2×10^5 conidia/mL by sterile DPBS.
For antifungal disk diffusion test we used square Petri dishes (FALCON A Corning Brand, USA). The conidial suspension (0.5 mL) was added to Petri dishes with Saburo dextrose agar. The suspension was evenly distributed over the surface of the nutrient medium with a glass spatula.
After the surface of the inoculated medium was dry, the disks with different concentrations of testing compounds were added to the Petri dishes. Each compound was tested in triplicate at different concentrations. Growth control was a disk with 10 μl of DMSO, which was used for test […]
Petri dishes incubated at 25 °C for 72 h. The test compounds at known concentrati on into contact with an inoculated medium then exert a growth-inhibiting effect then a clear zone (the zone of […]
inhibition) appears around the test product. The diameter of a clear zone around the well is […]
If the fungal strain is susceptible to the antifungal agent, then a zone of inhibition appears on the agar plate. If it is resistant to the test compound, then no zone is evident. The size of the zone of inhibition is usually related to the level of antifungal activity present in the compound – a larger […]
The growth rate of all strains for each concentration of test compounds was determined visually and compared with the growth of control.
Broth microdilution antifungal susceptibility testing
A 96-well CELLSTAR plate (sterile, flat-bottomed, polystyrene, transparent) was used to determine MIC by broth microdilution method. Also, dabble straight RPMI-1640 medium with 2% glucose (2x RPMI 2%G) was used for this method. Spore suspension for plate inoculation was prepared according to the method described above for the disc diffusion method.
The each well in the plate contained 49 μl of medium (2x RPMI 2%G), 50 μl of inoculum (prepared in DPBS) and 1 μl of the stock solution of the test substance. Positive control wells contained 50 μl medium and 50 μl inoculum, and sterile control wells contained 50 μl medium and […]
To determine the MIC by the microdilution method, a series of stock solutions of fungicides and their analogues in DMSO with the following concentrations were prepared: 3.2 mg/mL, 1.6 mg/mL, […]
1 μl of the stock solutions of the test substances were added to each well to obtain the following […]
Immediately after adding all the components to the plates, the optical density was measured at […]

[3] = Metabolic stability in human liver microsomes; settings: both, liver microsomes (pooled); for remaining at 40 min, 2 µM: Mean of 2, 40 min

solubility kinetic at 2 h ([1]; aqueous buffer, pH 7.4, read-out: Sol.: experimental kinetic solubility): 27 µM (≈ 10.4 µg/mL)
solubility at 2 h ([1]; read-out: PBS solubility, pH 7.4, Incubation 1): 25 µM (≈ 9.63 µg/mL)
solubility at 2 h ([1]; read-out: PBS solubility, pH 7.4, Incubation 2): 28 µM (≈ 10.8 µg/mL)
solubility at 2 h ([1]; read-out: PBS solubility, pH 7.4, Mean): 27 µM (≈ 10.4 µg/mL)
D (Table S5, injection 1, octanol/PBS pH 7.4): 4.08E+03
D (Table S5, injection 2, octanol/PBS pH 7.4): 4.11E+03
D (Table S5, injection 3, octanol/PBS pH 7.4): 4.44E+03
microsomal CLint at 2 µM ([3]; pH 7.4): 61 µL/min/mg
remaining at 40 min, 2 µM ([3]; pH 7.4, % Remaining without cofactor, no NADPH cofactor, Table S6, 1st batch): 109%
remaining at […], 2 µM ([3]; pH 7.4, % Remaining, Mean of 2, 7 min, Table S6, 1st batch): 70%
remaining at […], 2 µM ([3]; pH 7.4, % Remaining, Mean of 2, 15 min, Table S6, 1st batch): 53%
remaining at 25 min, 2 µM ([3]; pH 7.4, % Remaining, Mean of 2, 25 min, Table S6, 1st batch): 43%
remaining at 40 min, 2 µM ([3]; pH 7.4, % Remaining, Table S6, 1st batch): 35%
k el at 2 µM ([3]; pH 7.4, kel, Table S6, 1st batch): 0.000417 s⁻¹
half-life at 2 µM ([3]; pH 7.4, t1/2, Table S6, 1st batch): 27.3 min
SMILES: Cn1cc(C(=O)NC2CC3CC2(c2cc(F)c(F)c(F)c2)C3)c(C(F)F)n1 (stereo not shown) [Compound 30]
zone of inhibition at 4 µg/mL ([2]; Concentration 0.004 mg/mL, 0 = absence of antifungal activity, Boscalid, Fluxapyroxad, Bixafen marked st): 0 mm
zone of inhibition at 8 µg/mL ([2]; Concentration 0.008 mg/mL, 0 = absence of antifungal activity): 0 mm
zone of inhibition at 16 µg/mL ([2]; Concentration 0.016 mg/mL, 0 = absence of antifungal activity): 0 mm
zone of inhibition at 30 µg/mL ([2]; Concentration 0.03 mg/mL, 0 = absence of antifungal activity, (±)-29 marked st): 0 mm
zone of inhibition at 60 µg/mL ([2]; Concentration 0.06 mg/mL, 0 = absence of antifungal activity, Fluxapyroxad, Bixafen, (±)-29 marked st): 0 mm
zone of inhibition at 120 µg/mL ([2]; Concentration 0.12 mg/mL, (±)-28 marked st (static growth)): 10 ± 0.5 mm
zone of inhibition at 250 µg/mL ([2]; Concentration 0.25 mg/mL, (±)-28 marked st (static growth, secondary growth of mycelium)): 8.5 ± 1 mm
zone of inhibition at 500 µg/mL ([2]; Concentration 0.5 mg/mL, 10 μl per disk): 13.8 ± 0.75 mm
zone of inhibition at 1000 µg/mL ([2]; Concentration 1 mg/mL, 10 μl per disk): 20.5 ± 1 mm
zone of inhibition at 2000 µg/mL ([2]; Concentration 2 mg/mL, 10 μl per disk): 24.2 ± 0.75 mm
